Paper PMC4569415, “Pro-Oxidant Activity of Amine-Pyridine-Based Iron Complexes Efficiently Kills Cancer and Cancer Stem-Like Cells” (PLoS ONE, 2015)
“And” between values parts separate entries of the source, which are not always exact repeats. Identical values can stand only once. Like-named read-outs stand apart in the source and are kept apart here.

What was measured:
CAPAN-1 cells [1] = test: MTT cytotoxicity assay; assay type: cell-based, human; conditions: for viability at 10 µM / IC50 / viability at 5 µM: Homo sapiens; for viability at 10 µM: CAPAN-1, compound 10 μmol/L; for viability at 10 µM / viability at 5 µM: read-out: CAPAN-1 cell viability; for IC50: CAPAN-1, MTT, 48 h of compound exposure; for viability at 5 µM: CAPAN-1, compound 5 μmol/L
Experimental: (§1) The cytotoxic activity of the compounds was determined by MTT reduction assay as described. Compounds were diluted in Milli-Q water to obtain 1 mmol/L stock solutions. Appropriate aliquots of these solutions were diluted in the corresponding cell culture medium to obtain the final working concentrations. Aliquots of 5000 1BR3G cells, 6000 MCF-7, 6000 PC-3 cells, 10 000 CAPAN-1 cells, 4000 MCF 10A cells, 4000 HMLE cells or 4000 CCD-18Co cells were seeded in 96-well plates, 24 h prior to the treatments. Hematological cell lines were seeded at 400 000 cells/mL. Cells were treated with the corresponding compound at concentrations ranging from 0 to 100 μmol/L for 48 h. Three replicates for each compound were used. The IC50 was established for each compound by standard non-linear regression and curve fitting using GraphPad Prism (Graph Pad software Inc., La Jolla, CA, USA).

MCF-7 cells [2] = test: MTT cytotoxicity assay; assay type: cell-based, human; conditions: for IC50: Homo sapiens, MCF7, MTT, 48 h of compound exposure
Experimental: as §1

[3] = tested on: tumor (PC-3, Z-138 and JURKAT) cell lines; test: MTT cytotoxicity assay, tumor cell selection; assay type: cell-based; conditions: Homo sapiens, range over PC-3, Z-138 and JURKAT, 48 h, read-out: IC50 values against tumor cells (range)
Experimental: as §1

[4] = tested on: human leukemia, lymphoma and glioma cancer cells; test: MTT cell viability at 10 μmol/L, cell line panel; assay type: cell-based; conditions: 48 h
Experimental: as §1
Fig 2 Cell viability assay. (A) Cytotoxic activity of compounds 1, 2, and 5 against cancer cells. The indicated cell lines were treated for 48 h with ligands (10 μmol/L) and cell viability was measured with the MTT assay. Data represents the percentage of viable cells relative to untreated cells (control). (B) Cytotoxicity of doxorubicin and compounds 1, 2 and 5 against CS-like cells. CS-like HMLER-shEcad cells and non-CS-like HMLER isogenic parental cells were treated for 48 h with graded concentrations of doxorubicin, 1, 2 and 5. Cell viability was measured with the MTT assay. For each treatment, the percentage of viable cells relative to untreated cells is indicated. Data represents the mean±SD of 3 independent experiments performed in triplicate.

MCF-7 cells [5] = test: Colony formation (clonogenic) assay; assay type: cell-based, human; conditions: 10 μmol/L
Experimental: MCF-7 cells were seeded in 12-well plates. […] Subsequently, cells were washed with PBS, collected with trypsin and plated at low density (3000 cells in a […]). Cells were allowed to divide and form colonies for 7–10 days; after which, colonies were fixed and stained with 2% methylene blue in 50% ethanol. The number of colonies in each plate was determined using the Alpha Innotech Imaging system (Alpha Innotech, San Leandro, CA).

MCF-7 and CAPAN-1 cells = test: MTT cell viability with modulators (QVD-Oph, FeCl2); assay type: cell-based, human; conditions: 48 h; for effect of FeCl2 co-incubation on cytotoxicity of the ligand: FeCl2 100 μmol/L co-incubation, 2 at 5 μmol/L, 1 and 5 at 10 μmol/L
Experimental: as §1
Fig 4 Induction of caspase activity. (A) The indicated cell lines were treated for 48 h with compounds 1, 2 and 5 (10 μmol/L) and caspase 3/7 activity was measured as indicated in Materials and Methods. Bar charts show the fold increase in caspase activity relative to untreated (control) and represent the mean±SD from three independent experiments performed in triplicate. (B) MCF-7 and CAPAN-1 cells were treated for 48 h with the ligands (10 μM) in the absence (-) or presence (+) of the pan-caspase inhibitor QVD-Oph (20 μM) and cell viability was measured with the MTT assay. […] Data represents the mean ± SD of 3 independent experiments performed in triplicate. The differences between absence and presence of QVD-OPh treatment were statistically significant at * p<0.05, **p<0.01 and ***p<0.001.
Fig 9 Effects of iron on 1, 2 and 5 activity. (A) Effect of 2 h FeCl2 pre-incubation (FeCl2 p) (dotted line) or co-incubation (FeCl2 c) (dashed line) at 1, 10 or 100 μmol/L on the cytotoxicity of 2 (5 μmol/L) in MCF-7 and CAPAN-1 cells. FeCl2 alone was included as a control (solid line). Cell viability was determined after 48 h of treatment by the MTT assay. (B) Effect of FeCl2 pre-incubation or co-incubation (100 μmol/L) on the cytotoxicity of 2 (5 μmol/L), 1 and 5 (10 μmol/L). Cells treated with the ligands alone were included as a reference (control). (C) ROS induction in CAPAN-1 cells after 24 h treatment with 2 (10 μmol/L) alone, together with FeCl2 or after FeCl2 pre-incubation (at 100 μmol/L). Results are presented as a percentage of untreated cells and represent mean±SD of 3 independent experiments. *p < 0.05 versus control cells.

CAPAN-1 cells [6] = test: ROS measurement with H2DCFDA; assay type: cell-based, human; conditions: for fold increase of ROS levels: 5 h; for H2DCFDA fluorescence (ROS): 5.8 at 0 μmol/L; for reduction of compound-induced ROS levels by NAC: CAPAN-1, NAC 5 mmol/L
Experimental: Cellular ROS content was determined using the 2′,7′-dichlorodihydrofluorescein diacetate probe (H2DCFDA). Cells were seeded in 24-well plates (50 000 cells/well) in phenol red-free DMEM 24 h prior to treatments. Cells were treated with different concentrations of compound 1, 2 and 5 (2.5, 5 or 10 μmol/L) or vehicle alone as a control, for 5 or 24 hours at 37°C. In some experiments, cells were co-treated with the compounds plus 5 mmol/L NAC. After treatments, cells were washed with PBS and incubated with 1 μmol/L H2DCF-DA in PBS for 30 minutes in the dark. After washing, cells were collected with trypsin and analyzed by flow cytometry using a FACS-Calibur flow cytometer (Becton-Dickinson®, Immunofluorometry Systems, Mountain View, CA, USA). The geometric mean fluorescence intensity of 10 000 cells was established using CellQuestTM software (Becton Dickinson). The fluorescence fold-increase versus untreated cells was determined for each treatment.

MCF-7 cells [7] = test: Cellular labile iron pool with calcein-AM; assay type: cell-based, human; conditions: MCF-7, pre-incubation with ligands
MCF-7 cells [8] = test: Cellular DNA damage, p-H2A.X flow cytometry; assay type: cell-based, human; conditions: MCF-7, 10 μmol/L, time-dependent
Experimental: DNA damage was assessed by monitoring the intensity of p-H2A.X fluorescence using flow cytometry. Briefly, cells were collected with trypsin, washed in PBS and fixed in 3.7% formaldehyde for 15 min on ice. Cells were then permeabilised with 0.2% v/v Triton-X100 for 10 min and incubated with 1:400 rabbit anti-p-(S139)-H2A.X antibody (Cell Signaling Technology, Danvers, MA) for 30 min on ice. After washing in 0.1% Triton-X100 in PBS, cells were incubated with 1:400 anti-rabbit Alexa 555-conjugated antibody (Jackson ImmunoResearch, Newmarket, UK) for 20 min on ice. Analysis was carried out in a FACScan flow cytometer with Flowing software.

[9] = compound 10 μmol/L, FeCl2 100 μmol/L pre-incubation
[10] = compound 5 μmol/L, pretreated with 100 μmol/L FeCl2 for 2 h

| SMILES | IC50 (CAPAN-1 cells [1]) [µM] | IC50 (MCF-7 cells [2]) [µM] | IC50 [3] [µM] | antiproliferative activity at 10 μmol/L [4] | reduction of colony number vs control (MCF-7 cells [5]; 3 h exposure) [%] | reduction of colony number vs control (MCF-7 cells [5]; 24 h exposure) | effect of FeCl2 co-incubation on cytotoxicity of the ligand (MCF-7 and CAPAN-1 cells) | fold increase of ROS levels (CAPAN-1 cells [6]; CAPAN-1, 2.5 μmol/L) [fold] | fold increase of ROS levels (CAPAN-1 cells [6]; CAPAN-1, 5 μmol/L) [fold] | fold increase of ROS levels (CAPAN-1 cells [6]; CAPAN-1, 10 μmol/L) [fold] | reduction of compound-induced ROS levels by NAC (CAPAN-1 cells [6]) [%] | calcein fluorescence compared with untreated cells (MCF-7 cells [7]) | increase in phosphorylated H2A.X (MCF-7 cells [8]) | further results |
| --- | --- | --- | --- | --- | --- | --- | --- | --- | --- | --- | --- | --- | --- | --- |
| c1ccc(CN2CCC[C@H]2[C@@H]2CCCN2Cc2ccccn2)nc1 [Compound 1] | 9.9 ± 1.01 | 7.4 ± 0.2 | 4.8 to 15.1 | high antiproliferative activity | 0 | 57% and 56.6% | inhibited the cytotoxicity of the ligand in CAPAN-1, but not in MCF-7 cells | 1.73 | 2.01 | 2.61 | 31.1 | 131.4±13.2% | three fold | viability at 10 µM (CAPAN-1 cells [1]; presence of NAC): 45.2 ± 5.4%; viability at 10 µM (CAPAN-1 cells [1]; without NAC): 40.7 ± 6.9%; enhancement of cytotoxicity by FeCl2 pretreatment, CAPAN-1 (CAPAN-1 cells [1]; [9]): 25.5%; enhancement of cytotoxicity by FeCl2 pretreatment, MCF-7 (MCF-7 cells [2]; [9]): 58.6%; reduction of colony number vs control (MCF-7 cells [5]; 5 h exposure): 18.7%; reduction of colony number vs control (MCF-7 cells [5]; 12 h exposure): 40.5%; H2DCFDA fluorescence (ROS) (CAPAN-1 cells [6]; CAPAN-1, 2.5 μmol/L, 24 h): 10.9; H2DCFDA fluorescence (ROS) (CAPAN-1 cells [6]; CAPAN-1, 5 μmol/L, 24 h): 11.79; H2DCFDA fluorescence (ROS) (CAPAN-1 cells [6]; CAPAN-1, 10 μmol/L, 24 h): 32.6 |
| CN(C)c1ccnc(CN2CCC[C@H]2[C@@H]2CCCN2Cc2cc(N(C)C)ccn2)c1 [Compound 2] | 6 ± 0.7 | 3.7 ± 0.4 | 3.8 to 7.2 | high antiproliferative activity | 39 | almost abolished | clearly inhibited | 1.39 | 1.66 | 2.53 | 26.8 | 133.8±10.02% | three fold | viability at 5 µM (CAPAN-1 cells [1]; absence of NAC): 23.9 ± 2.9%; viability at 5 µM (CAPAN-1 cells [1]; presence of 5 mmol/L NAC): 33.6 ± 3.8%; increase in cell survival by NAC (CAPAN-1 cells [1]; compound 5 μmol/L, 5 mmol/L NAC): 40.6%; reduction in CAPAN-1 cell viability in FeCl2-pretreated cells (CAPAN-1 cells [1]; [10]): 37.7%; reduction in MCF-7 cell viability in FeCl2-pretreated cells (MCF-7 cells [2]; [10]): 51.8%; increase in cell viability by pan-caspase inhibitor QVD-Oph (MCF-7 and CAPAN-1 cells; ligand 10 μM, QVD-Oph 20 μM): lack of reversion; ROS induction with FeCl2 co-incubation (CAPAN-1 cells [6]; CAPAN-1, compound 10 μmol/L 24 h, FeCl2 100 μmol/L co-incubation): abolished ROS induction; increase in ROS levels in FeCl2-pretreated vs non-pretreated cells (CAPAN-1 cells [6]; CAPAN-1, compound 10 μmol/L 24 h, FeCl2 100 μmol/L pre-incubation): 1.5 fold |
| CN1CCN(Cc2ccccn2)CCN(Cc2ccccn2)CC1 [Compound 5] | 7.9 ± 0.5 | 7.7 ± 0.3 | 2.9 to 7.7 | high antiproliferative activity | – | 53% | Neither pretreatment nor co-incubation with FeCl2 affected | – | – | – | – | only a moderate iron-chelating effect | four fold | effect of NAC on cytotoxicity (CAPAN-1 cells [1]; CAPAN-1, NAC 5 mmol/L): no protective effect of NAC; intracellular ROS levels vs untreated cells (CAPAN-1 cells [6]; CAPAN-1, 10 μmol/L, 24 h): 2.4 fold |
